Here are results for one molecule from patent publication US8637511B2, “Aminopyrimidines useful as kinase inhibitors” (Vertex Pharmaceuticals Incorporated, priority 2005, dated 2014).

One experiment concerns Colo205 cells. Briefly: Analysis of cell proliferation and viability. In kind it is cell-based. Conditions: Homo sapiens, COLO 205; Colo205 cells, incubated for 96 hours; read-out: IC50 value.
In a further experiment the target is T1, human Itk kinase (Homo sapiens, UniProt Q08881).
T1 sequence (Q08881 1-620): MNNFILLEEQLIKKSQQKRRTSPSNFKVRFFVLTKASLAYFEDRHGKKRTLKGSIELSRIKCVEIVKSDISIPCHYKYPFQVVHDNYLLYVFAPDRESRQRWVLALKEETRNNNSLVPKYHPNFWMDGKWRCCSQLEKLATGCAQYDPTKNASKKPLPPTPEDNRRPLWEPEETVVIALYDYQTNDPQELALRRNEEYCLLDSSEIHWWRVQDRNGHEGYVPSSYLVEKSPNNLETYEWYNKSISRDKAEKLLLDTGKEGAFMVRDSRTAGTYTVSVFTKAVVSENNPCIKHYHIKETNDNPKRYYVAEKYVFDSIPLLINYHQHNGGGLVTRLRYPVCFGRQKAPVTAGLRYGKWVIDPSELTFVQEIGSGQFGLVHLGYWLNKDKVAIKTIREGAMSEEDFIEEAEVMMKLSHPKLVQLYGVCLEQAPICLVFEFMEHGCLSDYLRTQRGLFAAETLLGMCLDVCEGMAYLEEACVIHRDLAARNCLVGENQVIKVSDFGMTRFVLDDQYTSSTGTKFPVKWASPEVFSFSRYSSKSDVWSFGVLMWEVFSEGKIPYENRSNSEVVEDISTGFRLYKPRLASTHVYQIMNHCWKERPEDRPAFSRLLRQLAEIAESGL
In words: Itk inhibition assay: radioactivity-based assay. Type of experiment: biochemical. Conditions: Ki(app). Here is the method: The compounds of the present invention were evaluated as inhibitors of human Itk kinase using a radioactivity-based assay. These compounds can also be evaluated using a spectrophotometric or alphascreen assay.
Assays were carried out in a mixture of 20 mM MOPS (pH 7.0), 10 mM MgCl2, 0.1% BSA and 1 mM DTT. Final substrate concentrations in the assay were 7.5 μM [γ-^33P]ATP (400 μCi ^33P ATP/μmol ATP, Amersham Pharmacia Biotech/Sigma Chemicals) and 3 μM peptide (SAM68 protein Δ332-443). Assays were carried out at 25° C. in the presence of 50 nM Itk. An assay stock buffer solution was prepared containing all of the reagents listed above, with the exception of ATP and the test compound of interest. 50 μL of the stock solution was placed in a 96 well plate followed by addition of 2 μL of DMSO stock containing serial dilutions of the test compound (typically starting from a final concentration of 50 μM with 2-fold serial dilutions) in duplicate (final DMSO concentration 2%). The plate was pre-incubated for 10 minutes at 25° C. and the reaction initiated by addition of 50 μL [γ-^33P]ATP (final concentration 7.5 μM).
The reaction was stopped after 10 minutes by the addition of 100 μL 0.2M phosphoric acid+0.01% TWEEN 20. A multiscreen phosphocellulose filter 96-well plate (Millipore, Cat no. MAPHNOB50) was pretreated with 100 μL 0.2M phosphoric acid+0.01% TWEEN 20 prior to the addition of 170 μL of the stopped assay mixture. The plate was washed with 4×200 μL 0.2M phosphoric acid+0.01% TWEEN 20. After drying, 30 μL Optiphase ‘SuperMix’ liquid scintillation cocktail (Perkin Elmer) was added to the well prior to scintillation counting (1450 Microbeta Liquid Scintillation Counter, Wallac).
Ki(app) data were calculated from non-linear regression analysis of the initial rate data using the Prism software package (GraphPad Prism version 3.0cx for Macintosh, GraphPad Software, San Diego Calif., USA).

A further experiment concerns the target T2, FLT-3 (Homo sapiens, UniProt P36888).
T2 sequence (P36888 27-993): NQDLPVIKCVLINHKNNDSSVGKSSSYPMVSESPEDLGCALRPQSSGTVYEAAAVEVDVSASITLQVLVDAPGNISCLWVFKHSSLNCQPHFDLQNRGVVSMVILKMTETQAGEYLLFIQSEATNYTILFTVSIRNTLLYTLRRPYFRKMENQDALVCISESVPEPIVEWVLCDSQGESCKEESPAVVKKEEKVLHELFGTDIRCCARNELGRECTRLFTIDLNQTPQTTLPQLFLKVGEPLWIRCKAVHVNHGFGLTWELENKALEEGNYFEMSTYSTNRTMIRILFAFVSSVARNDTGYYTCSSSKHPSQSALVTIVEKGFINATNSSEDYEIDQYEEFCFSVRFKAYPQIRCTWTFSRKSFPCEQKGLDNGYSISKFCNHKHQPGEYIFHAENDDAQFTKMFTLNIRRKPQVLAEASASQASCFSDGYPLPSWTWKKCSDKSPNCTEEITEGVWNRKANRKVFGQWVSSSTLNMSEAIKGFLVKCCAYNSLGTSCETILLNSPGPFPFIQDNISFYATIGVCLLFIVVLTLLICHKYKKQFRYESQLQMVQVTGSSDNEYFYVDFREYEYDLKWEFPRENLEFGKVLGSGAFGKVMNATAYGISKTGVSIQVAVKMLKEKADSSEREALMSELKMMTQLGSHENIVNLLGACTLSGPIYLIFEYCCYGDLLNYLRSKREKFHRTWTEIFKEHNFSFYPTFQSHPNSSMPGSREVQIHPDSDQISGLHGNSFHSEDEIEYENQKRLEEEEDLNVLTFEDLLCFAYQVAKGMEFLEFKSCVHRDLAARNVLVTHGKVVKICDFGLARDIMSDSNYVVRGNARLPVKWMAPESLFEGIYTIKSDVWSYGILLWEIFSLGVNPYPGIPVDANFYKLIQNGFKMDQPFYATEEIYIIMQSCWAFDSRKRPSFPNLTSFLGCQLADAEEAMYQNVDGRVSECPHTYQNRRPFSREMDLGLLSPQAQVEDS
Briefly: FLT-3 inhibition assay, radiometric filter-binding. Type of experiment: biochemical. The procedure:
This assay monitors the 33P incorporation into a substrate poly(Glu, Tyr) 4:1 (pE4Y). […] Final substrate concentrations in the assay were 90 μM ATP and 0.5 mg/ml pE4Y (both from Sigma Chemicals, St. Louis, Mo.). […] Reactions were carried out at room temperature.
Two assay solutions were prepared. Solution 1 contains 100 mM HEPES (pH 7.5), 10 mM MgCl2, 25 mM NaCl, 1 mg/ml pE4Y and […] (containing 0.3 mCi of [γ-33^P]ATP for each reaction). Solution 2 contains 100 mM HEPES (pH 7.5), 10 mM MgCl2, 25 mM NaCl, 2 mM DTT, 0.02% BSA and 3 nM FLT-3. The assay was run on a 96 well plate by mixing 50 μl each of Solution 1 and […] of the compounds of the present invention. The reaction was initiated with Solution 2. […] All of the reaction volume was then transferred to a filter plate and washed with 5% TCA by a Harvester 9600 from TOMTEC (Hamden, Conn.). The amount of ^33P incorporation into pE4y was analyzed by a Packard Top Count Microplate Scintillation Counter (Meriden, Conn.). The data was fitted using Prism software to get an IC50 or Ki.

SMILES strings stand for the structures.

For orientation: IC50 means the concentration needed to halve the response being measured. As for `CCc1cc(Nc2cc(N3CCC3)nc(Sc3ccc(NC(=O)c4ccccc4Cl)cc3)n2)n[nH]1` [Compound 64], the IC50 with Colo205 cells fell in the range of 50 to 1000 nM. Moreover, the Ki at human Itk kinase is at most 100 nM; on FLT-3, 50 to 150 nM.
